In paper PMC11747885, “Potent inhibitors of the human RNA ligase Rlig1 highlights its role in RNA integrity maintenance under oxidative cellular stress” (Chemical Science, 2025):
One block for each molecule: values may come before it.

Target: T1, Rlig1-AMP (Homo sapiens, UniProt Q8N999)
T1 construct: made in house; host or cells: E. coli BL21 (DE3), pET15b-Rlig1
Assay: FRET-based high-throughput screening of inhibitors for Rlig1-AMP
Format: biochemical
Conditions: for Raw data [w Enyzm]: with enzyme; for Raw data [w/o Enzym]: without enzyme

[1] = sheet HTS hits, MedChemExpress library
[2] = sheet HTS hits, difference of raw data w/o and w enzyme
[3] = HTS hits, difference of raw data w/o and w enzyme
[4] = HTS hits, normalised value of 1-D Distance
[5] = HTS hits, MedChemExpress library
[6] = HTS hits, difference of raw data without and with enzyme
[7] = HTS hits, normalized value (npi)

T1 sequence (Q8N999 whole entry): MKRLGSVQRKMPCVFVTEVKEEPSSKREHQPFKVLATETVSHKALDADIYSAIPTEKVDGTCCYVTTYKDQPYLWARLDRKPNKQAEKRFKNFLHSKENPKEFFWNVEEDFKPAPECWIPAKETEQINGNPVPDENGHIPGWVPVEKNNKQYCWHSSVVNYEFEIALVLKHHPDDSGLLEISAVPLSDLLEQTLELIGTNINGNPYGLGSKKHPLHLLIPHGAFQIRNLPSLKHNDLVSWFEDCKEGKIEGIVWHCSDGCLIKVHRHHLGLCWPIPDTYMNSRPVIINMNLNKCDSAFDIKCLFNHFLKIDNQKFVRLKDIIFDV

Compound: COc1cccc2c1C(=N)c1c(O)c3c(c(O)c1C2=O)C[C@@](O)(C(C)=O)C[C@@H]3O[C@H]1C[C@H](N)[C@H](O)[C@H](C)O1.Cl [5-Iminodaunorubicin (hydrochloride)]
1-D Distance.npi [1]: 90.1534
1-D Distance [2]: 802
Raw data [w Enyzm] (sheet HTS hits): 2925
Raw data [w/o Enzym] (sheet HTS hits): 3727

Compound: COc1cccc2c1C(=N)c1c(O)c3c(c(O)c1C2=O)C[C@@](O)(C(C)=O)C[C@@H]3O[C@H]1C[C@H](N)[C@H](O)[C@H](C)O1 [5-Iminodaunorubicin]
1-D Distance [3]: 1374
1-D Distance.npi [4]: 80.0753
Raw data [w Enyzm] (HTS hits): 2360
Raw data [w/o Enzym] (HTS hits): 3734

Compound: CC(C)=CC[C@H](O)C1=CC(=O)c2c(O)ccc(O)c2C1=O [(-)-Alkannin]
1-D Distance.npi [5]: 70.9637
1-D Distance [6]: 1812
Raw data [w Enyzm] (HTS hits): 3885

Compound: Cc1ncsc1-c1ccc(CNC(=O)[C@@H]2C[C@@H](O)CN2C(=O)[C@@H](NC(=O)CCN)C(C)(C)C)cc1.Cl.Cl [(S,R,S)-AHPC-C2-NH2 (dihydrochloride)]
1-D Distance.npi [1]: 76.891
1-D Distance [2]: 1672
Raw data [w Enyzm] (sheet HTS hits): 9239
Raw data [w/o Enzym] (sheet HTS hits): 10911

Compound: O=C(O)c1ccc(-c2ccc(N(c3ccc(-c4ccc(C(=O)O)cc4)cc3)c3ccc(-c4ccc(C(=O)O)cc4)cc3)cc2)cc1 [Antibacterial agent 18]
1-D Distance.npi [5]: 80.2581
1-D Distance [6]: 1227
Raw data [w Enyzm] (HTS hits): 12110
Raw data [w/o Enzym] (HTS hits): 13337

Compound: CN1CCC=C(C(=O)O)C1 [Arecaidine]
1-D Distance [3]: 1949
1-D Distance.npi [4]: 71.9903
Raw data [w Enyzm] (HTS hits): 8786
Raw data [w/o Enzym] (HTS hits): 10735

Compound: C=C1C(=O)O[C@@H]2[C@H]3C(C)=CC[C@@]34O[C@@]4(C)CC[C@@H]12 [Arglabin]
1-D Distance [3]: 1673
Raw data [w Enyzm] (HTS hits): 8885
Raw data [w/o Enzym] (HTS hits): 10558

Compound: CC(=O)Nc1cc(Oc2ccc3c(C(=O)Nc4ccc(CN5CCN(C)CC5)c(C(F)(F)F)c4)cccc3c2)ncn1 [BGG463]
1-D Distance [3]: 797
1-D Distance.npi [7]: 93.5609
Raw data [w Enyzm] (HTS hits): 8276
Raw data [w/o Enzym] (HTS hits): 9073

Compound: O=c1[nH]c(=O)c2ccccc2[nH]1 [Benzoyleneurea]
1-D Distance.npi [5]: 70.2932
1-D Distance [6]: 1891
Raw data [w Enyzm] (HTS hits): 9137
Raw data [w/o Enzym] (HTS hits): 11028

Compound: O=C(O)CCCN1CCC(O[C@@H](c2ccc(Cl)cc2)c2ccccn2)CC1.O=S(=O)(O)c1ccccc1 [Bepotastine (besilate)]
1-D Distance.npi [1]: 70.3956
1-D Distance [2]: 1900
Raw data [w Enyzm] (sheet HTS hits): 8762
Raw data [w/o Enzym] (sheet HTS hits): 10662

Compound: CC(=O)Nc1ccc(S(=O)(=O)[O-])c2cc(S(=O)(=O)[O-])c(N=Nc3ccc(N=Nc4ccc(S(=O)(=O)[O-])cc4)c4ccc(S(=O)(=O)[O-])cc34)c(O)c12.[Na+].[Na+].[Na+].[Na+] [Brilliant Black BN]
1-D Distance.npi [5]: 98.2105
1-D Distance [6]: 272
Raw data [w Enyzm] (HTS hits): 1620
Raw data [w/o Enzym] (HTS hits): 1348

Compound: Cc1cccc2c3c(ccc12)C(=O)C1=C(OCC1C)C3=O (stereo not drawn) [Dihydroisotanshinone I]
1-D Distance.npi [1]: 72.3395
1-D Distance [2]: 1938
Raw data [w Enyzm] (sheet HTS hits): 11164
Raw data [w/o Enzym] (sheet HTS hits): 13102

Compound: C=CC1=C(C)c2cc3[n-]c(cc4nc(cc5[n-]c(cc1n2)c(C)c5C=C)C(C)=C4CCC(=O)O)c(CCC(=O)O)c3C.[Cl-].[Fe+3] [Hemin]
1-D Distance.npi [1]: 76.0753
1-D Distance [2]: 1716
Raw data [w Enyzm] (sheet HTS hits): 4406
Raw data [w/o Enzym] (sheet HTS hits): 6122

Compound: COc1c2c3c4c(c(OC)c(=O)c5c(O)cc(OC)c(c6c(OC)cc(O)c(c1=O)c63)c54)[C@@H](C(C)=O)[C@@](C)(O)C2 [Hypocrellin A]
1-D Distance [3]: 1179
Raw data [w Enyzm] (HTS hits): 1866
Raw data [w/o Enzym] (HTS hits): 3045

Compound: CC(=O)[C@]1(O)Cc2c(O)c3c(c(O)c2[C@@H](O[C@H]2C[C@H](N)[C@H](O)[C@H](C)O2)C1)C(=O)c1ccccc1C3=O.Cl [Idarubicin (hydrochloride)]
1-D Distance.npi [5]: 74.8199
1-D Distance [6]: 1722
Raw data [w Enyzm] (HTS hits): 5823
Raw data [w/o Enzym] (HTS hits): 7545

Compound: CC(C)c1nc2c([nH]1)-c1ccccc1C(=O)C2=O [KL1333]
1-D Distance [3]: 578
1-D Distance.npi [7]: 96.7085
Raw data [w Enyzm] (HTS hits): 12041
Raw data [w/o Enzym] (HTS hits): 12619

Compound: N[C@@H](CS)C(=O)O [L-Cysteine]
1-D Distance [3]: 1124
Raw data [w Enyzm] (HTS hits): 9158
Raw data [w/o Enzym] (HTS hits): 10282

Compound: N#Cc1cc(NS(=O)(=O)c2ccc(N)cc2)ccc1Oc1ccc(Cl)c(C(F)(F)F)c1 [Lp-PLA2-IN-3]
1-D Distance.npi [5]: 92.9896
1-D Distance [6]: 555
Raw data [w Enyzm] (HTS hits): 9448

Compound: CN(C)CCOC(=O)COc1ccc(Cl)cc1.Cl [Meclofenoxate (hydrochloride)]
1-D Distance.npi [5]: 72.0073
1-D Distance [6]: 1832
Raw data [w Enyzm] (HTS hits): 9480
Raw data [w/o Enzym] (HTS hits): 11312

Compound: COS(=O)(=O)[O-].COc1cccc2c1nc1ccccc1[n+]2C [Methoxy-PMS]
1-D Distance [3]: 2097
1-D Distance.npi [7]: 71.83
Raw data [w Enyzm] (HTS hits): 4514
Raw data [w/o Enzym] (HTS hits): 6611

Compound: COC(=O)Cc1ccc(C(C)(C)C)cc1 [Methyl p-tert-butylphenylacetate]
1-D Distance [3]: 2067
1-D Distance.npi [4]: 70.3748
Raw data [w Enyzm] (HTS hits): 8807
Raw data [w/o Enzym] (HTS hits): 10874

Second part, the molecule after the results:

1-D Distance [3]: 1774
1-D Distance.npi [4]: 75.4127
Raw data [w Enyzm] (HTS hits): 8996
Raw data [w/o Enzym] (HTS hits): 10770
Compound: CN(C)CCSSCCNC(=O)C1CCN(C(=O)CSc2ccc(Cl)cc2)CC1.O=C(O)C(F)(F)F [6H05 (TFA)]

1-D Distance [3]: 45
1-D Distance.npi [7]: 103.958
Raw data [w Enyzm] (HTS hits): 4942
Raw data [w/o Enzym] (HTS hits): 4897
Compound: CCCCCCCCCCCCCCCC(=O)NCCCC[C@@H](N)C(=O)NCCCNCCCCNCCCN.Cl.Cl.Cl.Cl [AMXT-1501 tetrahydrochloride]

1-D Distance [3]: 496
1-D Distance.npi [7]: 99.5333
Raw data [w Enyzm] (HTS hits): 3841
Raw data [w/o Enzym] (HTS hits): 4337
Compound: C[n+]1ccc(/C=C/c2ccc3c(c2)c2cc(/C=C/c4cc[n+](C)cc4)ccc2n3CCOCCOCCOCC[N+]2(C)CCCCC2)cc1.[I-].[I-].[I-] [BMVC-8C3O]

1-D Distance.npi [1]: 78.8376
1-D Distance [2]: 1567
Raw data [w Enyzm] (sheet HTS hits): 9208
Raw data [w/o Enzym] (sheet HTS hits): 10775
Compound: C#CCOCCOCCOCCOCC#C [Bis-propargyl-PEG3]

1-D Distance [3]: 99
1-D Distance.npi [4]: 102.921
Raw data [w Enyzm] (HTS hits): 2490
Raw data [w/o Enzym] (HTS hits): 2391
Compound: CN(C)c1ccc(Nc2c3ccc(NC(=O)CCN4CCCC4)cc3nc3cc(NC(=O)CCN4CCCC4)ccc23)cc1.Cl.Cl.Cl [Braco-19 (trihydrochloride)]

1-D Distance.npi [1]: 72.9978
1-D Distance [2]: 1882
Raw data [w Enyzm] (sheet HTS hits): 9154
Raw data [w/o Enzym] (sheet HTS hits): 11036
Compound: CC(C)(C)OC(=O)CCOCCBr [Bromo-PEG1-C2-Boc]

1-D Distance [6]: 1393
Raw data [w Enyzm] (HTS hits): 2370
Raw data [w/o Enzym] (HTS hits): 3763
Compound: CC(/C=C/C=C(\C)C(=O)O[C@@H]1O[C@H](CO[C@@H]2O[C@H](CO)[C@@H](O)[C@H](O)[C@H]2O)[C@@H](O)[C@H](O)[C@H]1O)=C\C=C\C=C(C)\C=C\C=C(/C)C(=O)O[C@@H]1O[C@H](CO[C@@H]2O[C@H](CO)[C@@H](O)[C@H](O)[C@H]2O)[C@@H](O)[C@H](O)[C@H]1O [Crocin]

1-D Distance [3]: 1434
1-D Distance.npi [7]: 83.3585
Raw data [w Enyzm] (HTS hits): 2111
Raw data [w/o Enzym] (HTS hits): 3545
Compound: COc1cccc2c1C(=O)c1c(O)c3c(c(O)c1C2=O)C[C@@](O)(C(C)=O)C[C@@H]3O[C@H]1C[C@H](NC(=O)OCc2ccc(O[C@@H]3O[C@H](CO)[C@H](O)[C@H](O)[C@H]3O)c([N+](=O)[O-])c2)[C@H](O)[C@H](C)O1 [Daun02]

1-D Distance.npi [1]: 92.4928
1-D Distance [2]: 680
Raw data [w Enyzm] (sheet HTS hits): 3683
Raw data [w/o Enzym] (sheet HTS hits): 4363
Compound: CC1=NN(c2ccc(C)c(C)c2)C(=O)/C1=N\Nc1cccc(-c2cccc(C(=O)O)c2)c1O.NCCO.NCCO [Eltrombopag (Olamine)]

1-D Distance.npi [5]: 99.0682
1-D Distance [6]: 316
Raw data [w Enyzm] (HTS hits): 1246
Compound: COc1cccc2c1C(=O)c1c(O)c3c(c(O)c1C2=O)C[C@@](O)(C(=O)CO)C[C@@H]3O[C@H]1C[C@H](N)[C@@H](O)[C@H](C)O1.Cl [Epirubicin (hydrochloride)]

1-D Distance.npi [1]: 75.4657
1-D Distance [2]: 1636
Raw data [w Enyzm] (sheet HTS hits): 9299
Raw data [w/o Enzym] (sheet HTS hits): 10935
Compound: CC(=O)O[C@H]1C[C@@]2(C)[C@@H](C[C@@H](O)[C@H]3[C@@]4(C)CC[C@@H](O)[C@@H](C)[C@@H]4CC[C@@]32C)/C1=C(\CCC=C(C)C)C(=O)[O-].[Na+] [Fusidic acid (sodium salt)]

1-D Distance.npi [5]: 78.9236
1-D Distance [6]: 1452
Raw data [w Enyzm] (HTS hits): 4827
Raw data [w/o Enzym] (HTS hits): 6279
Compound: C/C1=C2/[N-]C([C@H](CC(N)=O)[C@@]2(C)CCC(=O)NC[C@@H](C)OP(=O)([O-])O[C@H]2[C@@H](O)[C@@H](n3cnc4cc(C)c(C)cc43)O[C@@H]2CO)[C@]2(C)N=C(/C(C)=C3N=C(/C=C4N=C1[C@@H](CCC(N)=O)C\4(C)C)[C@@H](CCC(N)=O)[C@]\3(C)CC(N)=O)[C@@H](CCC(N)=O)[C@]2(C)CC(N)=O.CC(=O)[O-].[Co+3] [Hydroxocobalamin (acetate)]

1-D Distance.npi [1]: 101.9
1-D Distance [2]: 179
Raw data [w Enyzm] (sheet HTS hits): 5221
Raw data [w/o Enzym] (sheet HTS hits): 5042
Compound: C/C1=C2N=C(/C=C3N=C(/C(C)=C4\[N-]C(C(CC(N)=O)C4(C)CCC(=O)NCC(C)OP(=O)([O-])OC4C(CO)OC(n5cnc6cc(C)c(C)cc65)C4O)C4(C)N=C1C(CCC(N)=O)C4(C)CC(N)=O)C(CCC(N)=O)C\3(C)C)C(CCC(N)=O)C/2(C)CC(N)=O.Cl.[Co+3].[OH-] (stereo not drawn) [Hydroxocobalamin (monohydrochloride)]
